Format in all cases: in vivo
The subject of data set [1] is Male mouse models (CBA/J) of spontaneous alveolar epithelial hyperplasia. In words: Hair loss as side effect of adriamycin, Test Example 1. Conditions: ADM 0.1 mg/kg i.p., eight courses. As for the experimental part: (§1) Male mouse models (CBA/J) of spontaneous alveolar epithelial hyperplasia were employed as test animals. These mice develop alveolar epithelial hyperplasia 12 to 15 weeks after birth. Accordingly, they were raised with normal feeds until 19 weeks after birth. […] CPL was mixed with powder feeds (CE-2). The daily dosage of adriamycin (ADM) was 0.1 mg/kg per mouse, and administration was made intraperitoneally once a day for three consecutive days, followed by drug withdrawal for 11 days. This procedure was designated as constituting a single course, and eight courses thereof were conducted.
(§2) At the time of ADM administration, the body weights of mice were measured and their general conditions were observed. In particular, the occurrence of hair loss was carefully observed. The mice were subjected to autopsy 36 weeks or 37 weeks after birth (with an administration duration of 17 weeks or 18 weeks), and samples were recovered. Tissue blocks were obtained from 3 sites each of the extirpated right and left lungs (6 sites in total), the recovered tissue fragments were fixed, fragments embedded in hydrophilic methacrylate resins were subjected to H-E staining, and the ranges of alveolar epithelial hyperplasia were compared.

The test system of data set [2] is Mouse models of spontaneous cancer (CBA/J). In words: Hair loss and whisker loss as side effect of adriamycin, Test Example 4. Conditions: ADM 0.2 mg/kg i.p. in courses; CPL 0.01% in feed; n = 10 (ADM), 9 (ADM and CPL), 10 (CPL). The text has this: Based on the results attained in Test Examples 2 and 3, hair loss and whisker loss were observed under overcrowded conditions or in the presence of a dominant male. […] Accordingly, only the cage in which the dominant male was not present among the group that had been raised under normal conditions was selected, and the effects of CPL for alleviating side effects of an antitumor agent were examined.
Thereafter, they were divided into: the group to which an antitumor agent (adriamycin, ADM) had been administered; the group to which CPL-containing feeds had been administered; and the group to which ADM had been administered in combination with CPL, and these groups of mice were raised. The daily dosage of ADM was 0.2 mg/kg per mouse, and administration was made intraperitoneally once a day for 3 consecutive days, followed by drug withdrawal for 11 days. This procedure was designated as constituting a single course and then continued. CPL was mixed with feeds (CE-2) in amounts of 0.01% thereof.

In data set [3] the test system is alveolar epithelial hyperplasia in male mouse models (CBA/J). In words: Inhibition of alveolar epithelial hyperplasia, Test Example 1. How it is done: as §1
as §2, with “compared. […]” for “compared.”

Where [4] appears, read: CPL 0.01% in feed, group sizes n = 7 (CPL), 8 (CPL and ADM), 10 (ADM).

`COc1cccc2c1C(=O)c1c(O)c3c(c(O)c1C2=O)C[C@@](O)(C(=O)CO)C[C@@H]3O[C@H]1C[C@H](N)[C@H](O)[C@H](C)O1` [ADM, adriamycin]: the “Individuals with hair loss around the eyeballs and the skin of the upper lips” value in data set [1] (9 out of 10 cases) is 90%. Moreover, in data set [1] (setting [4]), the “Number of individuals undergoing hair loss around the eyeballs” value worked out at 9 and the “Number of individuals undergoing hair loss at the upper lip” value worked out at 9. The “Hair loss and whisker loss (number of individuals)” value in data set [2] is 4. The “Individuals in which sections with rates of hyperplasia development of 50% or more were observed” value in data set [3] (FIG. 9, as in the group that did not experience administration) is “all individuals”. For the same compound, the “Sections with rates of hyperplasia development of less than 10%, share of the whole” value in data set [3] (lung tissue sections, 6 sites per individual, autopsy 36 or 37 weeks after birth, FIG. 8) was found to be 8.3%.

(Values after patent US20060041019A1, “Inhibitor of anticancer drug side effect” (priority 2002, published 2006).)
